The values that follow come from a melting point compilation (Tetko et al.; mined from patent text by program, amines drawn as free bases though some values may be those of a salt).

Regarding `O=C(Cl)c1cc2ccccc2oc1=O`, the melting point (as a rule, the temperature, or range, at which the solid turns liquid) was in the range of 138 to 141 °C.

For the compound `CN(C)c1ccc(/C=C/c2cc(/C=C/c3ccc4cc[nH]c4c3)[nH]n2)cc1`, the melting point lay in the range of 224 to 227 °C.

Compound `CC1Cc2cc(OCc3ccccc3)c(Cl)c(Cl)c2C1=O` (stereo unspecified) gave a melting point of 153 to 155 °C.

Take `OCCOc1ccc2ncccc2c1`: the melting point fell in the range of 68 to 70 °C.

Regarding `COC(=O)c1cn(Cc2ccc(OCc3nc(-c4ccccc4)oc3C)cc2)nc1C(C)C`, the melting point was in the range of 90 to 91 °C.

As for `COc1nc(N)nc(OC)c1C1=NCCN1`, the melting point stood at 230 °C.

In turn, `CCCC[C@H](NC(=O)[C@H](CC(C)C)NC(=O)OCc1ccccc1)C(=O)CSC` displayed a melting point of 80 to 82 °C.

The compound `N#CC1CCc2c([nH]c3ccc(Cl)cc23)C1` (stereo unspecified) registered a melting point of 181 to 182 °C.

In the case of `CC(=O)NCCC1CCc2ccc3nn(C)cc3c21` (stereo unspecified), the melting point lay in the range of 123 to 125 °C.

The compound `CCCCCCCCCCCCS(=O)(=O)CCOc1ccc(C/C=C(\OC(C)=O)C(F)(F)F)cc1` returned a melting point of 48 to 49 °C.

The compound `C[C@H]1[C@H](O)C2(CC2)C(=O)N1c1ccc(C#N)c(Cl)c1` came in with a melting point of 169 to 172 °C.

The compound `O=C(c1cc2cc(OCc3ccccc3)ccc2[nH]1)C1(c2ccc(Cl)cc2)CCCC1` yielded a melting point of 134 to 136 °C.

The compound `CCOC(=O)CC1C(=O)N(CC(C)(C)C)c2ccc(Cl)cc2N(c2ccccc2Cl)C1=O` (stereo unspecified) gave a melting point of 152 to 153 °C.

On to `Cc1ccc(S(=O)(=O)n2cc(CCN(Cc3ccccc3)Cc3ccccc3)c3ccccc32)cc1`, for which the melting point was 116 to 118 °C.

Take `COCC1CN(c2cc3c(cc2F)c(=O)c(C(=O)O)cn3C2CC2)CCN1` (stereo unspecified): the melting point lay in the range of 215 to 216 °C.

In turn, `O=C(O)Cc1ccc2c(c1)Nc1ccccc1S2` yielded a melting point of 202 °C.

Turning to `CCOC(=O)c1ncc2[nH]c3cccc(Oc4ccc(Cl)cn4)c3c2c1COC`, the melting point fell in the range of 156 to 158 °C.

Take `O=C(O)c1ccc2nc(S)[nH]c2c1`: the melting point was more than 250 °C.

`CCCCc1oc2ccccc2c1C(=O)Nc1ccc2cc(OCc3nn[nH]n3)ccc2c1` came in with a melting point of 194 to 198 °C.

In the case of `CCc1c(-c2ccc(O)cc2)c2ccc3ccc(COCCN4CCCC4)c1n32`, the melting point was 183 to 187 °C.

In the case of `Cc1ccccc1C=C(C#N)C#N`, the melting point was 105 to 106 °C.

`OCc1nc2cc(Br)cnc2[nH]1` registered a melting point of 230 to 233 °C.

Take `Cc1cc(-c2cc(COS(C)(=O)=O)c(=O)n(Cc3ccccc3Cl)n2)ccc1F`: the melting point is 142 to 143 °C.

Consider `O=C(O)CCc1cc(OCCCCc2cc(-c3ccc(C(F)(F)F)cc3)no2)nn1-c1ccccc1`, for which the melting point is 139 to 140 °C.

Compound `CCCCCC1CCC(c2ccc3c(c2F)C(F)(F)Oc2c-3ccc(OCCCC)c2F)CC1` (stereo unspecified) gave a melting point of 99 °C.

`CC(C)c1nc(CCOC2=CCCCCCCCCCC2)n(C)c1Sc1cc(Cl)cc(Cl)c1` came in with a melting point of 96 to 102 °C.

Compound `CCC(CC)Oc1cc(C)nc2c1nc(C)c(=O)n2-c1c(C)cc(C)cc1C` gave a melting point of 215 to 217 °C.

As for `ClCn1nnc2ccccc21`, the melting point turned out to be 136 °C.

For `COC(=O)c1ccc(S(=O)(=O)N2CCC(Sc3cc(C(C)(C)C)c(O)c(C(C)(C)C)c3)CC2)n1C`, the melting point lay within 181 to 183 °C.

Compound `CC12CC(=O)C3C(CCC4CC(=O)CCC43C)C1CCC2C(=O)CO` (stereo unspecified) registered a melting point of 164 to 170 °C.

Compound `Nc1nc(O)c2c(n1)NCC(CCC1CCC(N[C@@H](CCC(=O)O)C(=O)O)CC1)C2` (stereo partly specified) registered a melting point of 210 to 225 °C.

`COc1c(C)cc(C(=O)CCC(=O)O)cc1C` yielded a melting point of 108 °C.

With `CC(C)(C)c1cc(C=C2SC(NCO)=NC2=O)cc(C(C)(C)C)c1O`, the melting point was 177 to 179 °C.

Take `CCCCCCCNC(=O)c1ccc(CCCC)cc1`: the melting point lay in the range of 37 to 38 °C.

`Cc1nc2c3c(ccn2c1C)[C@@H](O)[C@@](C)(O)[C@@H](c1ccccc1)N3` yielded a melting point of 180 °C.

Regarding `O=C1CC2(CCCC2)CC(=O)N1CCCCc1ccncc1`, the melting point was 155 to 157 °C.

In turn, `CCCCCCCCCCCCCCCCCCOc1ccc(C(=O)OCC)cc1[N+](=O)[O-]` gave a melting point of 48 to 56 °C.

Regarding `COc1nc(C(F)(F)F)cc(=O)n1-c1cc(OC(C)=O)c(Cl)cc1F`, the melting point was in the range of 110 to 112 °C.

`O=C(OCc1ccccc1)C1C(=O)N(Cc2ccc(Cl)c(Cl)c2)C(=O)c2cccn21` (stereo unspecified) had a melting point of 104 to 106 °C.

In turn, `Cc1ccccc1C(=O)c1ccc(Nc2ccccc2NC(=O)CO)cc1Cl` displayed a melting point of 127 to 129 °C.

The compound `Oc1ccc2c(c1)CC(NCC(O)c1ccccc1)CC2` (stereo unspecified) registered a melting point of 157 to 159 °C.

Compound `O=c1[nH]c2cc(Cl)ccc2c(=O)n1-c1ccccc1` registered a melting point of more than 300 °C.

Compound `COC(=O)CCc1cc2ccc(C(F)(F)F)cc2[nH]1` yielded a melting point of 108 to 110 °C.

With `O=C(NCCc1ncc(Cl)cc1Cl)c1ccccc1C(F)(F)F`, the melting point was 118 °C.

For `COC(=O)c1nsc2nccn12`, the melting point fell in the range of 164 to 165 °C.

As to `CCCCCCCCCCCCCCC[C@H]1O[C@@H]1C(=O)OC`, the melting point lay in the range of 54 to 55 °C.

Take `C=CCn1c(=O)c2cc(C(=O)OCC)cn2c2ccccc21`: the melting point was 177 to 178 °C.

The compound `Cc1ncoc1C(C)(O)c1ccco1` (stereo unspecified) showed a melting point of 73 to 75 °C.

The compound `CC1=NC(=NOC(=O)N(C)C)SC1(C)C` yielded a melting point of 108 to 110 °C.

The compound `CCNC(=O)NS(=O)(=O)c1ccccc1-c1ccc(Cn2c(CC)nc3c(C)ccnc32)cc1` came in with a melting point of 240 to 245 °C.

Compound `CCCCCCC(=O)C=Cc1ccc(OC(C)=O)c(OC(C)=O)c1` showed a melting point of 71 to 72 °C.

As to `CC(C)C(O)c1cccc(S(N)(=O)=O)c1` (stereo unspecified), the melting point lay within 152 to 153 °C.

The compound `COc1cnc(OC)n2nc(NS(=O)(=O)c3c(F)cccc3C(F)(F)F)nc12` had a melting point of 201 to 203 °C.

On to `Cc1cc(OCCN2CCOCC2)nn1-c1ccc2ccc(O)cc2c1`, for which the melting point fell in the range of 103 to 107 °C.

`Cc1ccc(-c2cc(C(N)=O)c(N)s2)cc1` yielded a melting point of 228 to 230 °C.

With `Cc1cc(Br)c(C=O)c2ccccc12`, the melting point amounted to 93 °C.

`CCOC(=O)c1cn(C2CC2)c2cc(-c3cc(C)nc(C)c3)c(F)cc2c1=O` had a melting point of 198 to 200 °C.

On to `CC(C)(C)OC(=O)NC1CCCCCC=CC2CC2(C(=O)NS(=O)(=O)C2CC2)NC(=O)C2CC(OC(=O)c3ccc(C#N)cc3)CN2C1=O` (stereo unspecified), for which the melting point was in the range of 164 to 166 °C.

Take `CC(C)c1nccc2c(CO)cccc12`: the melting point was in the range of 120 to 121 °C.

The compound `CN(C)C1(c2cccs2)CCC(=O)CC1` came in with a melting point of 102 to 103 °C.

Compound `Cc1oc(=O)oc1Cn1cc[nH]c(=O)c1=O` came in with a melting point of 225 to 226 °C.

Consider `CCN(Cc1cc(Cl)ccc1OCC1CC1)c1ccc(C(=O)NS(=O)(=O)C(F)(F)F)nn1`, for which the melting point worked out at 150 °C.

The compound `COC(=O)N(c1ccccn1)C(C(=O)NC(Cc1ccccc1)C(O)CN1C2CCC(C2)N1C(=O)OC(C)(C)C)C(C)C` (mixture of isomers) returned a melting point of 73 to 77 °C.

For the compound `Cc1c(NCCCNCC(O)COc2ccccc2)n(C)c(=O)n(C)c1=O` (stereo unspecified), the melting point was 132 to 133 °C.

Turning to `Cc1ccc(-c2c(O)nn(CCO[Si](C)(C)C(C)(C)C)c2N)cc1`, the melting point lay within 194 to 195 °C.

Turning to `CCNC(NC(C)=O)C(=O)NCc1ccccc1` (stereo unspecified), the melting point is 123 to 125 °C.

Regarding `Cc1nc2c3c(ccn2c1C)C(=O)[C@@](C)(O)[C@@H](c1ccccc1)N3`, the melting point is 240 °C.

The compound `CN(C(=O)CCCOc1ccc2c(c1)CN(CC(=O)O)C(N)=N2)C1CCCCC1` returned a melting point of 125 to 128 °C.

For the compound `CCCCCCCCCCCCCCCSCCO`, the melting point lay within 44 to 46 °C.

In the case of `COC(=O)C(=O)NC(=O)N1CCCCC1`, the melting point was 92 to 93 °C.

With `Cc1ccc2[nH]c(=O)c(C#N)c(Cl)c2c1`, the melting point turned out to be 264 °C.

`Cc1cc(C)n2nc(S(=O)(=O)N(C)c3c(Cl)cccc3Cl)nc2n1` had a melting point of 220 to 222 °C.

In turn, `CCCNC(=O)N1CCc2cc(S(=O)(=O)N3CC(c4ccccc4)NC3=O)ccc21` (stereo unspecified) displayed a melting point of 197 to 199 °C.

Regarding `O=C(NC1CCCCC1)ON1C(=O)CCC1=O`, the melting point was 158 to 160 °C.

`N#CC1=C(c2ccccc2)Nc2n[nH]cc2C1c1cccc(F)c1F` (stereo unspecified) returned a melting point of 165 °C.

As for `CCONC(=O)c1cc(NC(C)=C2C(=O)OC(=O)C(C(C)=O)=C2O)cc(C(=O)NOCC)c1`, the melting point is 234 to 235 °C.

`Cn1c(C(N)=O)c(-c2ccc(F)cc2)c2cccnc2c1=O` had a melting point of 329 to 330 °C.

Turning to `COCOc1cc(OC)ccc1C(=O)c1ccc(OCc2nc(-c3ccccc3)oc2C)cc1C`, the melting point lay in the range of 107 to 108 °C.

`COc1cccc(CN2Cc3cc(OC)c(O)cc3CC2C)c1` (stereo unspecified): the melting point lay in the range of 100 to 105 °C.

In turn, `CSc1nnc(-c2cccs2)n1C` had a melting point of 83 to 85 °C.

Compound `O=C(O)c1ccc2sc3ccccc3c2c1` displayed a melting point of 281 to 283 °C.

`COC(=O)Cc1ccc(CNC(=O)C2Cc3ccccc3N2S(=O)(=O)c2ccc(-c3cccc(C(F)(F)F)c3)cc2)c(Cl)c1` (stereo unspecified): the melting point was in the range of 124 to 126 °C.

Regarding `Cc1nc(N)c2nc(CO)n(NC3CCCC3)c2c1C`, the melting point lay within 254 to 256 °C.

For the compound `COC(=O)CCCCOc1ccc2nc3[nH]c(=O)n(C)c3cc2c1`, the melting point lay in the range of 223 to 225 °C.

`CCOC(=O)c1c(C)oc(=O)c(-c2c(C)cc(C)cc2C)c1OC(C)=O` returned a melting point of 107 to 109 °C.

As for `CC(=O)Nc1ccc(Cc2nc3cc(CC4SC(=O)NC4=O)ccc3o2)cc1` (stereo unspecified), the melting point lay within 233 to 236 °C.

`O=C(O)/C=C1/c2ccccc2N(C(=O)c2ccc(NC(=O)c3ccccc3-c3ccccc3)cc2)CCC1(F)F` displayed a melting point of 224 to 226 °C.

`CCn1cc(CO)c(OCc2ccc(OCc3nc(-c4ccco4)oc3C)c(OC)c2)n1` returned a melting point of 117 to 118 °C.

With `COc1ccc2c(c1)CN(C(=O)CN1CCOCC1)N=C2Cc1c(Cl)cncc1Cl`, the melting point was in the range of 180 to 182 °C.

With `O=c1[nH]c(CCN2CCN(c3ccccc3)CC2)c(-c2ccc(F)cc2)[nH]1`, the melting point fell in the range of 232 to 234 °C.

The compound `O=c1ncc(Cl)cn1CSc1ccc(F)cc1` displayed a melting point of 179 °C.
